According to PubChem BioAssay AID248 (DTP/NCI, 2004):
Several values for one entry are separate records, joined by “and”; a condition that tells them apart may be missing. Equal entries are not always repeated. Inconclusive results and toxic doses are left out. Rule as the data show it: active = T/C of 150% or more; inactive = T/C below 125%.

Tested on: L1210 leukemia ip in BDF1 mice, survival T/C
Test: NCI In Vivo Anticancer Drug Screen. Data for tumor model L1210 Leukemia (intraperitoneal) in B6D2F1 (BDF1) mice
Conditions: endpoint: mean survival time, higher = longer survival
Procedure, shortened: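 Transplanted-tumor mice were given test agent; controls received vehicle only. Survival readings from the two groups were divided (treated over control).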

[1] = dose: 100.0 mg/kg/injection, schedule: Q01DX001 (ip), vehicle: saline
[2] = dose: 200.0 mg/kg/injection, schedule: Q01DX001 (ip), vehicle: saline
[3] = dose: 400.0 mg/kg/injection, schedule: Q01DX001 (ip), vehicle: saline
[4] = dose: 100.0 mg/kg/injection, schedule: Q01DX009 (ip), vehicle: saline
[5] = dose: 200.0 mg/kg/injection, schedule: Q01DX009 (ip), vehicle: saline
[6] = dose: 100.0 mg/kg/injection, schedule: Q01DX001 (ip), vehicle: carboxymethylcellulose (CMC)
[7] = dose: 100.0 mg/kg/injection, schedule: Q04DX002 (ip), vehicle: saline with Tween-80
[8] = dose: 200.0 mg/kg/injection, schedule: Q01DX001 (ip), vehicle: carboxymethylcellulose (CMC)
[9] = dose: 200.0 mg/kg/injection, schedule: Q04DX002 (ip), vehicle: saline with Tween-80
[10] = dose: 400.0 mg/kg/injection, schedule: Q01DX001 (ip), vehicle: carboxymethylcellulose (CMC)
[11] = dose: 400.0 mg/kg/injection, schedule: Q04DX002 (ip), vehicle: saline with Tween-80
[12] = dose: 50.0 mg/kg/injection, schedule: Q01DX001 (ip), vehicle: carboxymethylcellulose (CMC)
[13] = dose: 100.0 mg/kg/injection, schedule: Q01DX009 (ip), vehicle: saline with Tween-80
[14] = dose: 100.0 mg/kg/injection, schedule: Q04DX003 (ip), vehicle: saline with Tween-80
[15] = dose: 200.0 mg/kg/injection, schedule: Q04DX003 (ip), vehicle: saline with Tween-80
[16] = dose: 200.0 mg/kg/injection, schedule: Q01DX009 (ip), vehicle: saline with Tween-80
[17] = dose: 400.0 mg/kg/injection, schedule: Q01DX009 (ip), vehicle: saline with Tween-80
[18] = dose: 400.0 mg/kg/injection, schedule: Q04DX003 (ip), vehicle: saline with Tween-80

Measured: T/C

Nn1nnc2ccccc21
inactive: [1] 95 % of control | [2] 97 % of control | [3] 97 % of control

Cc1ccc(OC(=O)Nc2ccc(C(=O)O)c(O)c2)cc1
inactive: [4] 96 % of control | dose: 100.0 mg/kg/injection, schedule: Q04DX003 (ip), vehicle: saline 96 % of control | [5] 89 % of control | dose: 200.0 mg/kg/injection, schedule: Q04DX003 (ip), vehicle: saline 93 % of control | dose: 400.0 mg/kg/injection, schedule: Q04DX003 (ip), vehicle: saline 95 % of control

CC1(C)CC(=O)CC(=C2C(=O)NC(=O)NC2=O)C1
inactive: [6] 89 % of control | dose: 100.0 mg/kg/injection, schedule: Q01DX002 (ip), vehicle: saline with Tween-80 92 % of control | [7] 103 % of control | [8] 92 % of control | dose: 200.0 mg/kg/injection, schedule: Q01DX002 (ip), vehicle: saline with Tween-80 98 % of control | [9] 111 % of control | [10] 87 % of control | dose: 400.0 mg/kg/injection, schedule: Q01DX002 (ip), vehicle: saline with Tween-80 95 % of control | [11] 100 % of control

Nc1ncnc2c1ncn2C1OC(CCO)C(O)C1O (stereo unspecified)
inactive: [6] 100 % of control | [8] 96 % of control | [10] 93 % of control

NS(=O)(=O)c1ccc(Cc2[nH]c(=O)[nH]c(=O)c2Br)cc1
inactive: dose: 25.0 mg/kg/injection, schedule: Q01DX001 (ip), vehicle: saline 101 % of control | dose: 50.0 mg/kg/injection, schedule: Q01DX001 (ip), vehicle: saline 95 % of control | [1] 101 % of control

CC(CC#N)c1ccc[nH]1 (stereo unspecified)
inactive: dose: 5.0 mg/kg/injection, schedule: Q01DX001 (ip), vehicle: carboxymethylcellulose (CMC) 115 % of control | dose: 10.0 mg/kg/injection, schedule: Q01DX001 (ip), vehicle: carboxymethylcellulose (CMC) 111 % of control | dose: 20.0 mg/kg/injection, schedule: Q01DX001 (ip), vehicle: carboxymethylcellulose (CMC) 117 % of control | dose: 40.0 mg/kg/injection, schedule: Q01DX001 (ip), vehicle: carboxymethylcellulose (CMC) 113 % of control | [12] 109 % of control | dose: 80.0 mg/kg/injection, schedule: Q01DX001 (ip), vehicle: carboxymethylcellulose (CMC) 96 % of control | [6] 102 % of control | [8] 107 % of control

CCN(CC)c1ccc(NC(=S)Nc2ccc(N(CC)CC)cc2)cc1
inactive: dose: 75.0 mg/kg/injection, schedule: Q01DX009 (ip), vehicle: Klucel (hydroxypropylcellulose) (HPC) 100 % of control | dose: 75.0 mg/kg/injection, schedule: Q04DX003 (ip), vehicle: saline 106 % of control | dose: 150.0 mg/kg/injection, schedule: Q01DX009 (ip), vehicle: Klucel (hydroxypropylcellulose) (HPC) 101 % of control | dose: 150.0 mg/kg/injection, schedule: Q04DX003 (ip), vehicle: saline 103 % of control | dose: 300.0 mg/kg/injection, schedule: Q01DX009 (ip), vehicle: Klucel (hydroxypropylcellulose) (HPC) 94 % of control | dose: 300.0 mg/kg/injection, schedule: Q04DX003 (ip), vehicle: saline 93 % of control

O=C1CC(=P(c2ccccc2)(c2ccccc2)c2ccccc2)C(=O)N1c1cccc2ccc(O)cc12
inactive: dose: 75.0 mg/kg/injection, schedule: Q01DX001 (ip), vehicle: saline 101 % of control | dose: 150.0 mg/kg/injection, schedule: Q01DX001 (ip), vehicle: saline 96 % of control | dose: 300.0 mg/kg/injection, schedule: Q01DX001 (ip), vehicle: saline 95 % of control

O=C(Nc1ccc(Cl)cc1)c1cc([N+](=O)[O-])ccc1O
inactive: dose: 30.5 mg/kg/injection, schedule: Q02DX010 (ip), vehicle: carboxymethylcellulose (CMC) 95 % of control | dose: 61.0 mg/kg/injection, schedule: Q02DX010 (ip), vehicle: carboxymethylcellulose (CMC) 101 % of control | dose: 122.0 mg/kg/injection, schedule: Q02DX010 (ip), vehicle: carboxymethylcellulose (CMC) 99 % of control | dose: 244.0 mg/kg/injection, schedule: Q02DX010 (ip), vehicle: carboxymethylcellulose (CMC) 94 % of control

NCc1cccc2ccccc12
inactive: dose: 62.5 mg/kg/injection, schedule: Q01DX001 (ip), vehicle: saline 109 % of control | [1] 112 % of control | dose: 125.0 mg/kg/injection, schedule: Q01DX001 (ip), vehicle: saline 104 % of control | [2] 96 % of control

CC(O)c1ccc[n+]([O-])c1 (stereo unspecified)
inactive: [4] 93 % of control | [5] 96 % of control | dose: 400.0 mg/kg/injection, schedule: Q01DX009 (ip), vehicle: saline 96 % of control

CCN(CC)CC(Cl)CN(CC)CC
inactive: dose: 50.0 mg/kg/injection, schedule: Q01DX009 (ip), vehicle: saline with Tween-80 104 % of control | [13] 87 % of control | [14] 97 % of control | [15] 88 % of control

O=[N+]([O-])c1ccc2cnn(CCO)c2c1
inactive: [6] 101 % of control | [8] 113 % of control | [10] 101 % of control

NC(=S)N/N=C/c1ccc[nH]1
inactive: dose: 100.0 mg/kg/injection, schedule: Q01DX001 (ip), vehicle: saline with Tween-80 93 % of control | dose: 200.0 mg/kg/injection, schedule: Q01DX001 (ip), vehicle: saline with Tween-80 98 % of control

Nc1ccc2ncnn2c1
inactive: [1] 103 % of control | [2] 106 % of control | [3] 101 % of control

Cc1cccc(NC(=S)NC(=O)c2cccc([N+](=O)[O-])c2)c1C
inactive: [13] 104 % of control and 118 % of control | [7] 88 % of control | [14] 99 % of control | [16] 103 % of control and 104 % of control | [9] 102 % of control | [15] 101 % of control | [17] 104 % of control | [11] 98 % of control | [18] 100 % of control

O=C(O)c1ccccc1CCl
inactive: [13] 101 % of control | [16] 108 % of control | [17] 95 % of control

O=C(NC(=S)Nc1ccccc1)c1ccc([N+](=O)[O-])cc1
inactive: dose: 75.0 mg/kg/injection, schedule: Q01DX001 (ip), vehicle: carboxymethylcellulose (CMC) 98 % of control | dose: 150.0 mg/kg/injection, schedule: Q01DX001 (ip), vehicle: carboxymethylcellulose (CMC) 90 % of control | dose: 300.0 mg/kg/injection, schedule: Q01DX001 (ip), vehicle: carboxymethylcellulose (CMC) 101 % of control

O=P(N=P(c1ccccc1)(c1ccccc1)c1ccccc1)(c1ccccc1)c1ccccc1
inactive: [1] 97 % of control | [2] 97 % of control | [3] 97 % of control

O=C(OC1COC(OC(=O)c2ccc([N+](=O)[O-])cc2)C(OC(=O)c2ccc([N+](=O)[O-])cc2)C1OC(=O)c1ccc([N+](=O)[O-])cc1)c1ccc([N+](=O)[O-])cc1 (stereo unspecified)
inactive: [1] 93 % of control | [2] 96 % of control | [3] 96 % of control

COc1ccc(/C(C)=N/N=C(\C)c2ccc(OC)cc2)cc1
inactive: [15] 94 % of control | [18] 91 % of control

Cn1c(=O)c2ncn(CC3CCCCC3)c2n(C)c1=O
inactive: [12] 87 % of control | [6] 90 % of control | [8] 86 % of control

Nc1ccc2nc3ccc(N)cc3[n+](-c3ccccc3)c2c1
inactive: dose: 5.0 mg/kg/injection, schedule: Q01DX001 (ip), vehicle: other 111 % of control | dose: 10.0 mg/kg/injection, schedule: Q01DX001 (ip), vehicle: other 108 % of control | dose: 18.0 mg/kg/injection, schedule: Q01DX001 (ip), vehicle: other 101 % of control and 103 % of control | dose: 20.0 mg/kg/injection, schedule: Q01DX001 (ip), vehicle: other 108 % of control | dose: 27.0 mg/kg/injection, schedule: Q01DX001 (ip), vehicle: other 106 % of control and 118 % of control | dose: 40.0 mg/kg/injection, schedule: Q01DX001 (ip), vehicle: other 110 % of control and 114 % of control | dose: 60.0 mg/kg/injection, schedule: Q01DX001 (ip), vehicle: other 104 % of control

COc1cccc(CCNC(=O)CC#N)c1OC
inactive: [4] 90 % of control | dose: 100.0 mg/kg/injection, schedule: Q04DX003 (ip), vehicle: Klucel (hydroxypropylcellulose) (HPC) 100 % of control | [5] 95 % of control | dose: 200.0 mg/kg/injection, schedule: Q04DX003 (ip), vehicle: Klucel (hydroxypropylcellulose) (HPC) 102 % of control | dose: 400.0 mg/kg/injection, schedule: Q04DX003 (ip), vehicle: Klucel (hydroxypropylcellulose) (HPC) 97 % of control
